“And” between values parts separate entries of the source, which are not always exact repeats. Equal values may be shown once. Where no end group is shown, it is not given here.
Experiments:
GnRH neurons [1] = assay: Spontaneous action potential firing, current clamp, slices from female rats; format: cell-based, rat; details: 7-10 min after addition
GnRH neurons [2] = assay: Current-voltage; format: cell-based, rat; details: 100 nM Kp-10, compared to control; representative recording (Figure 5B)
GnRH neurons [3] = test system: GnRH neurons
GnRH neurons [4] = details: adult male mouse; cited from earlier work
GnRH neurons [5] = details: mice and guinea pigs; cited from earlier work
GnRH neurons [6] = format: cell-based, rat
Kiss1R (Homo sapiens) = Kiss1R (Homo sapiens) (UniProt Q969F8); details: cited from earlier work
UniProt Q969F8, sequence (Q969F8 whole entry): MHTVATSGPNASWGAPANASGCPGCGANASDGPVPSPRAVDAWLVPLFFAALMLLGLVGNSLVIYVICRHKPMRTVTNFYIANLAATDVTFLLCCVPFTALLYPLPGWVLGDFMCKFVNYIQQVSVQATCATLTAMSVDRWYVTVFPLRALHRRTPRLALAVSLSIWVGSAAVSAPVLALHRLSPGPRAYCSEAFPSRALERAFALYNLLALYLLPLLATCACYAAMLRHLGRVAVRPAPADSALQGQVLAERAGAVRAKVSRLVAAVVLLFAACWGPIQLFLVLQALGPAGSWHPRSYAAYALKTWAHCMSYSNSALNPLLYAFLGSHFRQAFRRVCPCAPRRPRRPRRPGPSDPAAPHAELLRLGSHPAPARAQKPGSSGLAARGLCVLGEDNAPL

Kp-10, sequence (Q15726 whole entry, looked up): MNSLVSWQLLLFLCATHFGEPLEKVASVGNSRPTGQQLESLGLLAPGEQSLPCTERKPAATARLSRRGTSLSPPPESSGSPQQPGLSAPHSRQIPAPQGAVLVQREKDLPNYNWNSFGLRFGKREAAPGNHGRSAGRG

YNWNSFGLRY-NH2 [Kp-10, Mouse KiSS-1 (110–119)-NH2]
effect on action potential firing, in words (GnRH neurons [1]): stimulated the cell | reversal potential of kisspeptin-induced current (GnRH neurons [2]): −110 mV | depolarization by submaximal dose (GnRH neurons [3]; 10 nM Kp-10, TTX, mean ± SEM): 14.6 ± 2.3 mV | maximum depolarization (GnRH neurons [3]; 100 nM Kp-10, TTX, mean ± SEM): 20.2 ± 1.2 mV | depolarization, in words (GnRH neurons [3]; current clamp, TTX 1.0 μM, female rats): very prolonged, concentration-dependent depolarization of GnRH neurons that persisted long after washout of the agonist | cells responding to kisspeptin (GnRH neurons [3]; female rats, current clamp, TTX): Approximately 90% | GnRH neurons activated by kisspeptin (GnRH neurons [4]): about 90% | reversal potential of kisspeptin-induced currents (GnRH neurons [5]): −100 to −110 mV

CART: Cocaine and Amphetamine Regulated Transcript (55–102, rat), American Peptide Company, excitatory neuropeptide (IPIYEKKYGQVPMCDAGEQCAVRKGARIGKLCDCPRGTSCNSFLLKCL; ends and bridges not checked; cysteine pairing not given here; UniProt P49192 82-129, looked up, fragment)
CART-induced firing and depolarization, in words (GnRH neurons [6]): persisted long after washout | GnRH neurons responding to CART (GnRH neurons [6]; 30 nM CART, 8 out of 12 cells from 5 animals, without TTX): 60–70% | membrane depolarization by CART alone under TTX (GnRH neurons [6]; 30 nM CART, TTX, n = 12 cells from 6 animals, mean ± SEM): 7.3 ± 0.6 mV and 7.3 ± 0.64 mV | membrane depolarization by CART (GnRH neurons [6]; 30 nM CART, without TTX, p<0.0001): 7.8 ± 0.1 mV

Kp-10 (from UniProt Q15726)
Kd (Kiss1R (Homo sapiens)): 2.7 nM
